Biological target: T1, human 5-HT1A serotonergic receptor (Homo sapiens, UniProt P08908)
T1 construct: expressed in transfected cells; host or cells: HeLa
T1 sequence (P08908 1-422): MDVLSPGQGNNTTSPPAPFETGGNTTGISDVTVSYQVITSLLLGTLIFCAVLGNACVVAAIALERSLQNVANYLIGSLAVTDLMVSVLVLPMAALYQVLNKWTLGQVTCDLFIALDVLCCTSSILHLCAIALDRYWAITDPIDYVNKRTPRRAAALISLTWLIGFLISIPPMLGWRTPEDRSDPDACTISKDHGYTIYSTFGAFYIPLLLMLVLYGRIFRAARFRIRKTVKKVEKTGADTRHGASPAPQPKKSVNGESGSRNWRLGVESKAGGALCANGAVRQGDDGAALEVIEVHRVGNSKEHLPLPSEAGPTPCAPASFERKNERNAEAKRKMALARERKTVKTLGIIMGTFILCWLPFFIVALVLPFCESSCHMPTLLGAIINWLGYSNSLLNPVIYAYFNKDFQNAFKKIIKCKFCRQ
Assay: Radioreceptor binding, recombinant human 5-HT1A receptors ([3H]8-OH-DPAT, HeLa membranes)
Conditions: recombinant human receptor, [3H]8-OH-DPAT; Ki from IC50 by Cheng & Prusoff; read-out: Binding affinity for the 5-HT1A receptor, Ki
Protocol: Genomic clone G-21 coding for the human 5-HT1A serotonergic receptor is stably transfected in a human cell line (HeLa). HeLa cells were grown as monolayers in Dulbecco's modified Eagle's medium (DMEM), supplemented with 10% fetal calf serum and gentamicin ([…]), 5% CO2 at 37° C. Cells were detached from the growth flask at 95% confluence by a cell scraper and were lysed in ice-cold 5 mM Tris and 5 mM EDTA buffer (pH 7.4). Homogenates were centrifuged at 40000×g×20 min and pellets were resuspended in a small volume of ice-cold 5 mM Tris and 5 mM EDTA buffer (pH 7.4) and immediately frozen and stored at −70° C. until use. On the day of experiment, cell membranes were resuspended in binding buffer: 50 mM Tris HCl (pH 7.4), 2.5 mM MgCl2, 10 μM pargiline (Fargin et al., Nature 335, 358-360, 1988). Membranes were incubated in a final volume of 1 ml for 30 min at 30° C. with 0.2-1 nM [3H]8-OH-DPAT, in absence or presence of competing drugs; non-specific binding was determined in the presence of 10 μM 5-HT. The incubation was stopped by addition of ice-cold Tris-HCl buffer and rapid filtration through 0.2% polyethyleneimine pretreated Whatman GF/B or Schleicher & Schuell GF52 filters.
The inhibition of specific binding of the radioligands by the tested drugs was analyzed to estimate the IC50 value by using the non-linear curve-fitting program Allfit (De Lean et al., Am. J. Physiol. 235, E97-E102, 1978). The IC50 value was converted to an affinity constant (Ki) by the equation of Cheng & Prusoff (Cheng, Y. C.; Prusoff, W. H. Biochem. Pharmacol. 22, 3099-3108, 1973).

SMILES	Ki [nM]
COc1ccccc1N1CCN(CCN(C(=O)C2CCCCC2)c2ccccc2NC(C)=O)CC1 [Example 28, 1-[N-(2-acetylaminophenyl)-N-cyclohexylcarbonyl-2-aminoethyl]-4-(2-methoxyphenyl)piperazine]	18.8
COc1ccccc1N1CCN(CCN(C(=O)C2CCCCC2)c2ccccc2NS(C)(=O)=O)CC1 [Example 46, 1-[N-cyclohexylcarbonyl-N-(2-methanesulphonylaminophenyl)-2-aminoethyl]-4-(2-methoxyphenyl)piperazine]	6.05
COc1ccccc1N1CCN(CCN(C(=O)C2CCCCC2)c2ccccc2Oc2ccccc2)CC1 [Example 6, 1-[N-(2-phenoxyphenyl)-N-cyclohexylcarbonyl-2-aminoethyl]-4-(2-methoxyphenyl)piperazine]	0.45
COC(=O)c1ccccc1NCCN1CCN(c2ccccc2OC)CC1 [Example 17, 1-[N-(2-methoxycarbonylphenyl)-2-aminoethyl]-4-(2-methoxyphenyl)piperazine]	20.2
COc1ccccc1[N+]1([O-])CCN(CCN(C(=O)C2CCCCC2)c2ccccc2[N+](=O)[O-])CC1 [Example 30, 1-[N-(2-nitrophenyl)-N-cyclohexylcarbonyl-2-aminoethyl]-4-(2-methoxyphenyl)piperazine N^4-oxide]	7.96
COc1cc([N+](=O)[O-])ccc1N1CCN(CCN(C(=O)C2CCCCC2)c2ccccc2OCC(F)(F)F)CC1 [Example 65]	18.6
COc1ccccc1N1CCN(CCN(C(=O)C2CCCCC2)c2ccccc2C(F)(F)F)CC1 [Example 26, 1-[N-(2-trifluoromethylphenyl)-N-cyclohexylcarbonyl-2-aminoethyl]-4-(2-methoxyphenyl)piperazine.]	2.69
COc1ccc(Br)c(CN2CCN(CCN(C(=O)C3CCCCC3)c3ccccc3C#N)CC2)c1 [Example 83, 1-[N-(2-cyanophenyl)-N-cyclohexylcarbonyl-2-aminoethyl]-4-(2-bromo-5-methoxybenzyl)piperazine]	1.31
O=[N+]([O-])c1ccccc1NCCN1CCN(c2cccc3[nH]ccc23)CC1 [Example 12, 1-[N-(2-nitrophenyl)-2-aminoethyl]-4-(4-indolyl)piperazine]	4.77
COc1ccccc1N1CCN(CCN(C(=O)C2CCCCC2)c2ccccc2OC(F)(F)F)CC1 [Example 4, 1-[N-(2-trifluoromethoxyphenyl)-N-cyclohexylcarbonyl-2-aminoethyl]-4-(2-methoxyphenyl)piperazine]	0.64
COc1ccccc1N1CCN(CCN(C(=O)c2cncs2)c2ccccc2[N+](=O)[O-])CC1 [Example 73]	21.2
COc1ccccc1N1CCN(CCN(C(=O)C2CCCCC2)c2ccccc2C(=O)OCc2ccccc2)CC1 [Example 49, 1-[N-cyclohexylcarbonyl-N-(2-benzyloxycarbonylphenyl)-2-aminoethyl]-4-(2-methoxyphenyl)piperazine]	0.17
COc1ccccc1N1CCN(CCN(C(=O)c2ccsc2)c2ccccc2[N+](=O)[O-])CC1 [Example 35, 1-[N-(2-nitrophenyl)-N-(3-thiophenecarbonyl)-2-aminoethyl]-4-(2-methoxyphenyl)piperazine]	8
COc1cc(NC(C)=O)ccc1N1CCN(CCN(C(=O)C2CCCCC2)c2ccccc2[N+](=O)[O-])CC1 [Example 70]	28.1
CS(=O)(=O)Nc1ccccc1N(CCN1CCN(c2cccc3[nH]ccc23)CC1)C(=O)C1CCCCC1 [Example 88, 1-[N-cyclohexylcarbonyl-N-(2-methanesulphonylaminophenyl)-2-aminoethyl]-4-(4-indolyl)piperazine]	1.03
FC(F)(F)Oc1ccccc1NCCN1CCN(c2cccc3[nH]ccc23)CC1 [Example 50, 1-[N-(2-trifluoromethoxyphenyl)-2-aminoethyl]-4-(4-indolyl)piperazine]	1.16
N#Cc1ccccc1N(CCN1CCN(c2ccccc2OC(F)(F)F)CC1)C(=O)C1CCCCC1 [Example 77, 1-[N-(2-cyanophenyl)-N-cyclohexylcarbonyl-2-aminoethyl]-4-(2-trifluoromethoxyphenyl)piperazine]	0.58

SMILES	Ki [nM]
COc1ccccc1N1CCN(CCNc2ccccc2C(F)(F)F)CC1 [Example 22, 1-[N-(2-trifluoromethylphenyl)-2-aminoethyl]-4-(2-methoxyphenyl)piperazine]	18.2
O=[N+]([O-])c1ccccc1NCCN1CCN(Cc2cc(Cl)ccc2Cl)CC1 [Example 14, 1-[N-(2-nitrophenyl)-2-aminoethyl)-4-(2,5-dichlorobenzyl)piperazine]	10.3
COc1ccccc1N1CCN(CCN(C(=O)C2(C)CCCCC2)c2ccccc2[N+](=O)[O-])CC1 [Example 39, 1-[N-(2-nitrophenyl)-N-(1-methylcyclohexylcarbonyl)-2-aminoethyl]-4-(2-methoxyphenyl)piperazine]	2.65
COc1ccccc1N1CCN(CCN(C(=O)c2cnccn2)c2ccccc2[N+](=O)[O-])CC1 [Example 38, 1-[N-(2-nitrophenyl)-N-(2-pyrazinylcarbonyl)-2-aminoethyl]-4-(2-methoxyphenyl)piperazine]	1.02
COc1ccc(Br)c(CN2CCN(CCNc3ccccc3OC(F)(F)F)CC2)c1 [Example 74, 1-[N-(2-trifluoromethoxyphenyl)-2-aminoethyl]-4-(2-bromo-5-methoxybenzyl)piperazine]	2.02
CCNC(=O)c1ccccc1N(CCN1CCN(c2ccccc2OC)CC1)C(=O)C1CCCCC1 [Example 25, 1-[N-(2-ethylaminocarbonylphenyl)-N-cyclohexylcarbonyl-2-aminoethyl]-4-(2-methoxyphenyl)piperazine]	8.91
COc1cc([N+](=O)[O-])ccc1N1CCN(CCN(C(=O)C2CCCCC2)c2ccccc2OC(F)(F)F)CC1 [Example 55, 1-[N-cyclohexylcarbonyl-N-(2-trifluoromethoxyphenyl)-2-aminoethyl]-^4-(2-methoxy-4-nitrophenyl)piperazine]	10.8
O=C(c1cnccn1)N(CCN1CCN(c2cccc3[nH]ccc23)CC1)c1ccccc1[N+](=O)[O-] [Example 53]	11.7
COc1ccccc1N1CCN(CCNc2ccccc2OC(F)(F)F)CC1 [Example 3, 1-[N-(2-trifluoromethoxyphenyl)-2-aminoethyl]-4-(2-methoxyphenyl)piperazine]	10.3
O=C(C1CCCCC1)N(CCN1CCN(c2cccc3c2ccn3C(=O)C2CCCCC2)CC1)c1ccccc1OC(F)(F)F [Example 84, 1-[N-cyclohexylcarbonyl-N-(2-trifluoromethoxyphenyl)-2-aminoethyl]-4-(1-cyclohexylcarbonyl-4-indolyl)piperazine]	23.2
COc1ccccc1N1CCN(CCN(C(=O)C2CCCCC2)c2ccccc2C(=O)N(C)C)CC1 [Example 21, 1-[N-(2-dimethylaminocarbonylphenyl)-N-cyclohexylcarbonyl-2-aminoethyl]-4-(2-methoxyphenyl)piperazine.]	2.72
COc1ccccc1N1CCN(CCN(C(=O)C2CCCCC2)c2ccccc2C(=O)NC(=O)C2CCCCC2)CC1 [Example 16, 1-[N-(2-cyclohexylcarbonylaminocarbonylphenyl)-N-cyclohexylcarbonyl-2-aminoethyl]-4-(2-methoxyphenyl)piperazine]	2.9
FC(F)(F)Oc1ccccc1NCCN1CCN(c2ccccc2OC(F)(F)F)CC1 [Example 71, 1-[N-(2-trifluoromethoxyphenyl)-2-aminoethyl]-4-(2-trifluoromethoxyphenyl)piperazine]	15.5
COc1ccccc1N1CCN(CCN(C(=O)c2cccs2)c2ccccc2[N+](=O)[O-])CC1 [Example 34, 1-[N-(2-nitrophenyl)-N-(2-thiophenecarbonyl)-2-aminoethyl]-4-(2-methoxyphenyl)piperazine]	16.3
COc1ccccc1N1CCN(CCNc2ccccc2Oc2ccccc2)CC1 [Example 5, 1-[N-(2-phenoxyphenyl)-2-aminoethyl]-4-(2-methoxyphenyl)piperazine.3HCl]	14.8
O=C(C1CCCCC1)N(CCN1CCN(c2cccc3[nH]ccc23)CC1)c1ccccc1I [Example 76, 1-[N-cyclohexylcarbonyl-N-(2-iodophenyl)-2-aminoethyl]-4-(4-indolyl)piperazine]	0.69

— US6399614B1, “1-(N-phenylaminoalkyl)piperazine derivatives substituted at position 2 of the phenyl ring” (Recordati S.A. Chemical and Pharmaceutical Company, priority 1997, dated 2002)
